Data: publication PMC6857134, “Antimicrobial functional divergence of the cecropin antibacterial peptide gene family in Musca domestica” (Parasites & Vectors, 2019)
In brackets after ≈: the same amount, converted by molar mass. Residues, ends and D or L forms follow the SMILES beside them. No end group written: not given here.

Columns and labels:
A. baumannii (4367992) = experiment: Time-killing assay (growth curve, absorbance at 600 nm); assay type: cell-based, Acinetobacter baumannii
Method: The effect of peptides on the growth of an A. baumannii (4367992) isolate was examined as follows: the strain was cultured in nutrient agar for 18–20 h and adjusted to 0.5 McFarland units with MHB medium, then diluted 1:20 in MHB medium. Each peptide was added to one culture tube at a final concentration of 1× MIC or 2× MIC. […] The cultures were incubated for 24 h at 37 °C with shaking at 200× rpm, and the absorbance at 600 nm of 1 ml aliquots was recorded at 0.5–2 h intervals.

A. baumannii 4367992 = experiment: MIC by broth microdilution; assay type: cell-based, Acinetobacter baumannii; settings: 37 °C, 24 h; for MIC / inhibitory concentration against A. baumannii: strain not given, broth microdilution
Method: (§1) Evaluation of the MIC of synthetic peptides was performed using broth microdilution techniques according to the guidelines of the Clinical and Laboratory Standards Association (CLSI). The antimicrobial spectrum and biological activity of the above chemically synthesized peptides were tested against six Gram-positive bacteria, five Gram-negative bacteria and one fungus. Overnight cultures of the 11 bacteria were grown in MHB at 37 °C and C. albicans was grown in Sabouraud dextrose broth (SDB) medium (Sangon, Shanghai, China) and cultured at 37 °C to mid-log phase and diluted to 1.5 × 10^6 CFU/ml. In a polypropylene 96-well round-bottom plate, 50 μl of bacteria was mixed with 50 μl of designed synthetic peptide dissolved in sterile distilled water (final concentration of 0–64 μM). Sterile distilled water was used as a negative control and polymyxin B dissolved in sterile distilled water as a positive control.

[1] = test system: tested microorganisms (Gram-positive bacteria, Gram-negative bacteria, one fungus); experiment: MIC by broth microdilution, summary over the panel of tested microorganisms; assay type: cell-based; settings: at concentrations up to 32 μM
Method: as §1

[2] = test system: extensive-drug-resistant A. baumannii (4367992); experiment: Leakage of 260 nm absorbing material; assay type: cell-based, Acinetobacter baumannii; settings: 0.5× MIC and 2× MIC, 0–8 h, 37 °C, 1 × 10^6 CFU/ml; three independent experiments
Method: The reference method was slightly modified, taking the logarithmic growth phase of extensive-drug-resistant A. baumannii (4367992) as detected bacteria. Five millilitres of bacterial suspension (1 × 10^6 CFU/ml) was treated with different concentrations of antimicrobial peptides (0.5× MIC, 2× MIC). After being placed at 37 °C and 150× rpm, aliquots (0.5 ml) of the treated bacterial suspension were removed at different intervals (0, 0.5, 1, 2, 4, 6 and 8 h). The aliquots were centrifuged (1000× rpm, 5 min) and the absorbance of supernatant was measured at 260 nm, using PBS as the control.

In the case of `CC[C@H](C)CCCCC(=O)N[C@@H](CCN)C(=O)N[C@H](C(=O)N[C@@H](CCN)C(=O)N[C@H]1CCNC(=O)[C@H]([C@@H](C)O)NC(=O)[C@H](CCN)NC(=O)[C@H](CCN)NC(=O)[C@H](CC(C)C)NC(=O)[C@@H](Cc2ccccc2)NC(=O)[C@H](CCN)NC1=O)[C@@H](C)O` [polymyxin B, reference compound] (HELM PEPTIDE1{[CC[C@H](C)CCCCC(=O)[*:2]].[Dab].T.[Dab].[Dab].[Dab].[dF].L.[Dab].[Dab].T}$PEPTIDE1,PEPTIDE1,5:R3-11:R2$$$V2.0; N-terminus assumed; bridges inferred), the “duration of antibacterial effect on A. baumannii” value (A. baumannii (4367992); Cec4 at 1× MIC and 2× MIC, polymyxin B at 1× MIC (1.05 μM), MHB, 37 °C, 200 rpm, absorbance 600 nm over 24 h, three independent experiments) is reported as ≤ 12 h and the MIC (A. baumannii 4367992; A. baumannii 4367992 (extensive-drug-resistant isolate), broth microdilution (CLSI), MHB, visual growth) is reported as 1.05 µM (≈ 1.26 µg/mL).
“GWLKDFGRRIERVGQHTRDATIQAIGVAQQATDVAATLKGK [Cec9]” was tested, and the “inhibitory effect on the other experimental strains (other than E. coli)” value [1] was “no inhibitory effect”.
“GWLKKIGKKIERVGQNTRDATIQAIGVAQQAANVAATLKGK [Cec4]” was tested, and the “leakage of 260 nm absorbing material (maximum absorbance at 260 nm)” value [2] was “dose-dependent increase”, the “time-kill kinetics, killing pattern” value (A. baumannii (4367992); A. baumannii in the logarithmic growth phase) was “rapid and concentration-dependent killing pattern” and the “MIC / inhibitory concentration against A. baumannii” value (A. baumannii 4367992) was 0.5 µM.
With “GWLKKVGKKIERVGQHTRDATIQGLGVAQQAANVVATVKGK [Cec3]” the “MIC / inhibitory concentration against A. baumannii” value (A. baumannii 4367992) was 32 µM.
